Test results published in ChEMBL document CHEMBL4334471, “Discovery of 1,8-disubstituted-[1,2,3]triazolo[4,5-c]quinoline derivatives as a new class of Hippo signaling pathway inhibitors” (Bioorg Med Chem Lett, 2019).

Legend:
[1] = biological target: Bone morphogenetic protein receptor type-1B (Homo sapiens) (UniProt O00238); experiment: Inhibition of human ALK6 (148 to end residues) assessed as residual activity at 10 uM using casein as substrate incubated for 40 mins in presence of [gamma-33ATP] by scintillation counting based radiometry assay relative to control
Bone morphogenetic protein receptor type-1B (Homo sapiens), sequence (O00238 whole entry): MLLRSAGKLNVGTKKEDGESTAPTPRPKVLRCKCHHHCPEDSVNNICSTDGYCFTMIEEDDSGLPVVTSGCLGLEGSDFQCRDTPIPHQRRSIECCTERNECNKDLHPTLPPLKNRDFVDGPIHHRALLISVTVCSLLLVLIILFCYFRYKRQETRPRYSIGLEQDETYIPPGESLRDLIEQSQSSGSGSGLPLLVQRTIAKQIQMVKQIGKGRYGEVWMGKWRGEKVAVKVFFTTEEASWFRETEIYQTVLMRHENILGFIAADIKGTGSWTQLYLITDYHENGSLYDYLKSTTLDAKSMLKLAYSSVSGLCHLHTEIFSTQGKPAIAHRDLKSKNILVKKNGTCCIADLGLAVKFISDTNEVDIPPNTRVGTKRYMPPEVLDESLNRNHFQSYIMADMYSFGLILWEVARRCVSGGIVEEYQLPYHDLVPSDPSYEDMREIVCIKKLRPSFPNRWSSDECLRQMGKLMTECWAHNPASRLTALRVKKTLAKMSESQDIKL

Homo sapiens = species on record: Homo sapiens; experiment: Inhibition of recombinant full length human Aurora A I31F mutant assessed as residual activity at 10 uM using LRRASLG as substrate incubated for 40 mins in presence of [gamma-33ATP] by scintillation counting based radiometry assay relative to control
[2] = biological target: Cytoplasmic tyrosine-protein kinase BMX (Homo sapiens) (UniProt P51813); experiment: Inhibition of recombinant full length human BMX assessed as residual activity at 10 uM using poly(Glu, Tyr) 4:1 as substrate incubated for 40 mins in presence of [gamma-33ATP] by scintillation counting based radiometry assay relative to control
[3] = biological target: CDK7/Cyclin H/MNAT1 (Homo sapiens) (UniProt P51946+P50613+P51948); experiment: Inhibition of recombinant full length human CDK7/cyclinH/MAT1 assessed as residual activity at 10 uM using peptide as substrate incubated for 40 mins in presence of [gamma-33ATP] by scintillation counting based radiometry assay relative to control; assay type: protein-complex assay
[4] = biological target: Transient receptor potential cation channel subfamily M member 7 (Homo sapiens) (UniProt Q96QT4); experiment: Inhibition of recombinant human CHAK1 (1180 to end residues) assessed as residual activity at 10 uM using myelin basic protein as substrate incubated for 40 mins in presence of [gamma-33ATP] by scintillation counting based radiometry assay relative to control
[5] = biological target: Casein kinase I isoform delta (Homo sapiens) (UniProt P48730); experiment: Inhibition of recombinant human CK1delta (1 to 294 residues) assessed as residual activity at 10 uM using KRRRALS(p)VASLPGL as substrate incubated for 40 mins in presence of [gamma-33ATP] by scintillation counting based radiometry assay relative to control
[6] = biological target: Serine/threonine-protein kinase 17A (Homo sapiens) (UniProt Q9UEE5); experiment: Inhibition of recombinant human DRAK1 assessed as residual activity at 10 uM using KKLNRTLSFAEPG as substrate at 40 mins in presence of [gamma-33ATP] by scintillation counting based radiometry assay relative to control
Serine/threonine-protein kinase 17A (Homo sapiens), sequence (Q9UEE5 whole entry): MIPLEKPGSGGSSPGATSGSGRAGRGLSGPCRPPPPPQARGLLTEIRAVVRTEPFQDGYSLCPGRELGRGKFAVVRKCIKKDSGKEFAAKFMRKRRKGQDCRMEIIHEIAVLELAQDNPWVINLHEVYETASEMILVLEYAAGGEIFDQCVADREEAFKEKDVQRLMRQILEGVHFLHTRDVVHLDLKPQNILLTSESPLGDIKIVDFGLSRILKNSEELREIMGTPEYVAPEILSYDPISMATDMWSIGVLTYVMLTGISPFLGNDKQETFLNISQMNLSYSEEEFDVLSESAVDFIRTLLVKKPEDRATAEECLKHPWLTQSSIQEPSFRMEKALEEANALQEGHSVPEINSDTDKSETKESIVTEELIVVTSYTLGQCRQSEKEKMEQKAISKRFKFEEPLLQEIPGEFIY

[7] = biological target: Dual specificity tyrosine-phosphorylation-regulated kinase 1A (Homo sapiens) (UniProt Q13627); experiment: Inhibition of recombinant human DYRK1A assessed as residual activity at 10 uM using RRRFRPASPLRGPP as substrate at 40 mins in presence of [gamma-33ATP] by scintillation counting based radiometry assay relative to control
[8] = biological target: Dual specificity tyrosine-phosphorylation-regulated kinase 2 (Homo sapiens) (UniProt Q92630); experiment: Inhibition of recombinant human DYRK2 assessed as residual activity at 10 uM using casein as substrate at 40 mins in presence of [gamma-33ATP] by scintillation counting based radiometry assay relative to control
[9] = system: Epidermal growth factor receptor (Homo sapiens), P00533 [L861Q]; experiment: Inhibition of recombinant human EGFR L861Q mutant (696 to end residues) assessed as residual activity at 10 uM using poly(Glu, Tyr) 4:1 as substrate at 40 mins in presence of [gamma-33ATP] by scintillation counting based radiometry assay relative to control
[10] = biological target: G protein-coupled receptor kinase 3 (Homo sapiens) (UniProt P35626); experiment: Inhibition of recombinant full length human GRK3 assessed as residual activity at 10 uM using casein as substrate at 40 mins in presence of [gamma-33ATP] by scintillation counting based radiometry assay relative to control
[11] = biological target: Tyrosine-protein kinase JAK2 (Homo sapiens) (UniProt O60674); experiment: Inhibition of human JAK2 (808 to end residues) assessed as residual activity at 10 uM using KTFCGTPEYLAPEVRREPRILSEEEQEMFRDFDYIADWC as substrate after 40 mins by [gamma-33ATP] radiometric assay relative to control
[12] = biological target: Dual specificity mitogen-activated protein kinase kinase 6 (Homo sapiens) (UniProt P52564); experiment: Inhibition of recombinant human MKK6 assessed as residual activity at 10 uM by scintillation counting based radiometry assay relative to control
Dual specificity mitogen-activated protein kinase kinase 6 (Homo sapiens), sequence (P52564 whole entry, the tested form may be a part): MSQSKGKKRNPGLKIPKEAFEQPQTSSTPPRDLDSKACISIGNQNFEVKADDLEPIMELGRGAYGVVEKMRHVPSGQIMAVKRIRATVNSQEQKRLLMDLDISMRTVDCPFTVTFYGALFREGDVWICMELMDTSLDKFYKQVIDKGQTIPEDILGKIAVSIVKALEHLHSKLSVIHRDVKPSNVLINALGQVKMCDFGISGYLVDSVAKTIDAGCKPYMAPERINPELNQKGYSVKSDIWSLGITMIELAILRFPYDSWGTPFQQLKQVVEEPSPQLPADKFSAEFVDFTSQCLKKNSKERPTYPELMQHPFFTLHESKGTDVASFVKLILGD

[13] = biological target: Serine/threonine-protein kinase 26 (Homo sapiens) (UniProt Q9P289); experiment: Inhibition of recombinant human MST4 (4 to 304 residues) assessed as residual activity at 10 uM using RLGRDKYKTLRQI as substrate measured after 40 mins in presence of [gamma33P]ATP by scintillation counting based radiometry assay relative to control
Serine/threonine-protein kinase 26 (Homo sapiens), sequence (Q9P289 2-416 limits assumed): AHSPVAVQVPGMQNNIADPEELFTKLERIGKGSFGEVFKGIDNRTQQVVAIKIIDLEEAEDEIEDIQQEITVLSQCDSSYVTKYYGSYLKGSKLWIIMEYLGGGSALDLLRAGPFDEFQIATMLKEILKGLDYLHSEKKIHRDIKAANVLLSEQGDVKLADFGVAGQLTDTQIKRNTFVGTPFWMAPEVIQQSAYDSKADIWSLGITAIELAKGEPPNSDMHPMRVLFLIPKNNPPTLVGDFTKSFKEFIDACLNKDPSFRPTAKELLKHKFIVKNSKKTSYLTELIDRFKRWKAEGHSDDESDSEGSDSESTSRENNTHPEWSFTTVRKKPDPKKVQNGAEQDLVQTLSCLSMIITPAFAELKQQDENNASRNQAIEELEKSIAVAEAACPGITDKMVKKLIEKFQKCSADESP

[14] = biological target: Serine/threonine-protein kinase Nek2 (Homo sapiens) (UniProt P51955); experiment: Inhibition of recombinant full-length human NEK2 assessed as residual activity at 10 uM using myelin basic protein as substrate measured after 40 mins in presence of [gamma33P]ATP by scintillation counting based radiometry assay relative to control
Serine/threonine-protein kinase Nek2 (Homo sapiens), sequence (P51955 whole entry): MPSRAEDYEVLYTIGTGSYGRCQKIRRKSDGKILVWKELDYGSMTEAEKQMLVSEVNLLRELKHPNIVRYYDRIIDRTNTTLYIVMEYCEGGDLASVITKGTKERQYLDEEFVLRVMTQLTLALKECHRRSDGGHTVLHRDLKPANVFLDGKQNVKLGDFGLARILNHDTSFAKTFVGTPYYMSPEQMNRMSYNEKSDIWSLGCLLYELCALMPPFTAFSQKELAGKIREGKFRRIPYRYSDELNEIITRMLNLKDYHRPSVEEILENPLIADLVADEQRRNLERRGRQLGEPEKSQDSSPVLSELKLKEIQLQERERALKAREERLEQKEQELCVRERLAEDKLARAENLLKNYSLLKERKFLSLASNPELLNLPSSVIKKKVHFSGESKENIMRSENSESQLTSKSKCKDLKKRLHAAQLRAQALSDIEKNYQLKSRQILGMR

[15] = biological target: Protein kinase C alpha type (Homo sapiens) (UniProt P17252); experiment: Inhibition of recombinant human full length PKCalpha assessed as residual activity at 10 uM using histone H1 as substrate incubated for 40 mins in presence of [gamma33P]ATP by scintillation counting based radiometry assay relative to control
[16] = biological target: Protein kinase C beta type (Homo sapiens) (UniProt P05771); experiment: Inhibition of recombinant human PKCbeta1 (2 to end residues) assessed as residual activity at 10 uM using histone H1 as substrate incubated for 40 mins in presence of [gamma33P]ATP by scintillation counting based radiometry assay relative to control
Protein kinase C beta type (Homo sapiens), sequence (P05771 2-671 limits assumed): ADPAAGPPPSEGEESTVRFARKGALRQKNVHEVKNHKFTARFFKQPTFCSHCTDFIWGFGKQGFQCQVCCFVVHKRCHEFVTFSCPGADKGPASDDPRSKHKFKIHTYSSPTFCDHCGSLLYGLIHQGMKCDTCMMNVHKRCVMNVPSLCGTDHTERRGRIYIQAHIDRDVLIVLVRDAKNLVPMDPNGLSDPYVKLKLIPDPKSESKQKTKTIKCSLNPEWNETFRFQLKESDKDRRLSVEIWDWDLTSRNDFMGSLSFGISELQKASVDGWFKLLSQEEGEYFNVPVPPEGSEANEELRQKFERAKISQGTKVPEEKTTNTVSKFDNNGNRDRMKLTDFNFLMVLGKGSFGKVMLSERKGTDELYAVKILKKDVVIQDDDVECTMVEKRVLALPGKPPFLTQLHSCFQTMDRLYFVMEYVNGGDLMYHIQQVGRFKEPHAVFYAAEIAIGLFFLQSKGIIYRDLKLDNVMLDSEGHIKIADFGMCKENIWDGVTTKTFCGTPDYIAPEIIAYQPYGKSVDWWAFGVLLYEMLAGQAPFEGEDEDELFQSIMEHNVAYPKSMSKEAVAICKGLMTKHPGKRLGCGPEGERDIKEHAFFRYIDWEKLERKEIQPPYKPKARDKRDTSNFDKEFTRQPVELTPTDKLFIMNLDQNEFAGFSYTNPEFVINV

[17] = biological target: Tyrosine-protein kinase SYK (Homo sapiens) (UniProt P43405); experiment: Inhibition of recombinant human full length SYK assessed as residual activity at 10 uM using poly(Glu, Tyr) 4:1 as substrate incubated for 40 mins in presence of [gamma33P]ATP by scintillation counting based radiometry assay relative to control
[18] = biological target: Serine/threonine-protein kinase TAO2 (Homo sapiens) (UniProt Q9UL54); experiment: Inhibition of recombinant human TAO2 (1 to 320 residues) assessed as residual activity at 10 uM using myelin basic protein as substrate incubated for 40 mins in presence of [gamma33P]ATP by scintillation counting based radiometry assay relative to control
Serine/threonine-protein kinase TAO2 (Homo sapiens), sequence (Q9UL54 whole entry, the tested form may be a part): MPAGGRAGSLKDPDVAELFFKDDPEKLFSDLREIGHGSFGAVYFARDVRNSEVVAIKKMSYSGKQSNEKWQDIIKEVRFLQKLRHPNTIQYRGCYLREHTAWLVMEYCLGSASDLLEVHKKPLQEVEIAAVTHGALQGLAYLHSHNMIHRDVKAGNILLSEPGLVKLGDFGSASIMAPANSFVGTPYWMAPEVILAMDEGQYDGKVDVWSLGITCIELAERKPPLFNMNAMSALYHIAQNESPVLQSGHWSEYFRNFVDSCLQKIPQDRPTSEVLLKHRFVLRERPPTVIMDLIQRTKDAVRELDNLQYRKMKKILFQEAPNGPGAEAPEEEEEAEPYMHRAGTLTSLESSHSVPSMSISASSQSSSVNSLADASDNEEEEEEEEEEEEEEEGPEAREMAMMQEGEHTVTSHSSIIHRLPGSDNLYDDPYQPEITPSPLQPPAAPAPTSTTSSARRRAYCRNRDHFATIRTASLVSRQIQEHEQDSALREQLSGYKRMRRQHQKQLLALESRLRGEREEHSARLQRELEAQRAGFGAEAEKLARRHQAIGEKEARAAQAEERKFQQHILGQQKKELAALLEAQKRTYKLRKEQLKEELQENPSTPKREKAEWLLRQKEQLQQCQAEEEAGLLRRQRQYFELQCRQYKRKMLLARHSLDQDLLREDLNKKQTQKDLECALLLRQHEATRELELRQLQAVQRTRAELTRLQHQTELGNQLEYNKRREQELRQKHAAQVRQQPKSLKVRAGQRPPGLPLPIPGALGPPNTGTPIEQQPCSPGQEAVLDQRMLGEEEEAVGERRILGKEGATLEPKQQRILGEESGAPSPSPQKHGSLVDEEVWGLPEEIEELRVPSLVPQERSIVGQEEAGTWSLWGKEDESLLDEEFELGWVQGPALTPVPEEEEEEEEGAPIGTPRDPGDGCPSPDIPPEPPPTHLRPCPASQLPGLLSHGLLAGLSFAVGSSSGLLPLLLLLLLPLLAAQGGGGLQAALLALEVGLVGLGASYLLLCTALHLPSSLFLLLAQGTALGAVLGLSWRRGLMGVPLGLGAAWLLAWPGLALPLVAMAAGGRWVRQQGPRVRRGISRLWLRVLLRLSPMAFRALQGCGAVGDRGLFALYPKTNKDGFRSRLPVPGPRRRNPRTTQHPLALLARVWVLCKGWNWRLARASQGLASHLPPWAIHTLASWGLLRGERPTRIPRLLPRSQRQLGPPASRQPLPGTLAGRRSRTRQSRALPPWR

[19] = system: Serine/threonine-protein kinase TAO3 (Homo sapiens), Q9H2K8 [UNDEFINED MUTATION]; experiment: Inhibition of recombinant human TAO3 N47S mutant (1 to 411 residues) assessed as residual activity at 10 uM using myelin basic protein as substrate incubated for 40 mins in presence of [gamma33P]ATP by scintillation counting based radiometry assay relative to control
Serine/threonine-protein kinase TAO3 (Homo sapiens), Q9H2K8 [UNDEFINED MUTATION], sequence (Q9H2K8 whole entry, looked up, stated change not applied, the tested form may be a part): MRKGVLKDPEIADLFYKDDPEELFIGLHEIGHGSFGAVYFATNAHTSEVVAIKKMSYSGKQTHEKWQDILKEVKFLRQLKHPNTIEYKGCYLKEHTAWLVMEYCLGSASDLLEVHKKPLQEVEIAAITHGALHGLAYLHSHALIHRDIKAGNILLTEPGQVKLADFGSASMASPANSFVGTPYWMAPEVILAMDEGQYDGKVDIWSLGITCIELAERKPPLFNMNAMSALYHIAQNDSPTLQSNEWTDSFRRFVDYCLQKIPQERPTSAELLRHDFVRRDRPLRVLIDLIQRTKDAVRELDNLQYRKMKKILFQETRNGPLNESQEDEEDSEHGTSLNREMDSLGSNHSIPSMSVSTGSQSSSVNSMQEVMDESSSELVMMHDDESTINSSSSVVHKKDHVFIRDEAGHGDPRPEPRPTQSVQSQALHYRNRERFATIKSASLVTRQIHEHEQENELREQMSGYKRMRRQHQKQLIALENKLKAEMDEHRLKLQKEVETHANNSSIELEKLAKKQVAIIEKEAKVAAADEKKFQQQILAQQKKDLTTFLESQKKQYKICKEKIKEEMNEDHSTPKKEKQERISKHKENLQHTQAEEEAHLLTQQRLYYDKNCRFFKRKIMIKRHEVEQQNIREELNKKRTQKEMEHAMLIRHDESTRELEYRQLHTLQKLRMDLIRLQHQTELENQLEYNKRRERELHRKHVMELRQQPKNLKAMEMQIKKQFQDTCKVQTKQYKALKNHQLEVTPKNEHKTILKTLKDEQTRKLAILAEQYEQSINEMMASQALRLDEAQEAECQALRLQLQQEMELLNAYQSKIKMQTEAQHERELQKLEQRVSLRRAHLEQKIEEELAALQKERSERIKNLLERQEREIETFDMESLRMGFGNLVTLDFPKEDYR

[20] = biological target: Mitogen-activated protein kinase kinase kinase 10 (Homo sapiens) (UniProt Q02779); experiment: Inhibition of recombinant human MLK2 (1 to 499 residues) assessed as residual activity at 10 uM using myelin basic protein as substrate incubated for 40 mins in presence of [gamma-33ATP by scintillation counting based radiometry assay relative to control

## C[C@@H](c1ccccc1)n1nnc2cnc3ccc(-c4cnc5[nH]ccc5c4)cc3c21
[1]
  Activity: 93%
Homo sapiens
  Activity: 69%
[2]
  Activity: 44%
[3]
  Activity: 80%
[4]
  Activity: 66%
[5]
  Activity: 23%
[6]
  Activity: 60%
[7]
  Activity: 63%
[8]
  Activity: 94%
[9]
  Activity: 70%
[10]
  Activity: 110%
[11]
  Activity: 43%
[12]
  Activity: 109%
[13]
  Activity: 69%
[14]
  Activity: 75%
[15]
  Activity: 77%
[16]
  Activity: 110%
[17]
  Activity: 41%
[18]
  Activity: 85%
[19]
  Activity: 68%
[20]
  Activity: 69%
